Tests used:
[1] = tested on: one-carbon metabolism; assay: dTTP levels and labelling (serine through one-carbon metabolism); format: cell-based; conditions: sulfite vs vehicle treated samples, over time
Protocol: The total dTTP, M+1dTTP and M+2 dTT were measured in the presence or absence of sulfite.
(§1) The complete platform consists of an Accela 1250 HPLC system, Accela Open Autosampler, MayLab Mistraswitch column oven and Exactive orbitrap mass spectrometer, controlled by the Xcalibur 3.0.63 software package. Chromatography was performed with a Phenomenex Synergi Hydro-RP column (100×2 mm, 2.5 μm particle size). Solvent A is 10 mM tributylamine and 15 mm acetic acid in water; Solvent B is methanol. The gradient is: 0 min, 0% B; 2.5 min, 0% B; 5 min, 20% B; 7.5 min, 20% B; 13 min, 55% B; 15.5 min, 95% B; 18.5 min, 95% B; 19 min, 0% B; 25 min, 0% B. The injection volume was 10 μl. The column temperature was set to 40° C., and the flow rate was 200 μl/min. The Exactive was operated in negative ionization mode with an electrospray ionization interface. The instrument parameters are as follows: sheath gas flow rate 30 (arbitrary units), aux gas flow rate 10 (arbitrary units), sweep gas flow rate 3 (arbitrary units), spray voltage 3 kV, capillary temperature 325° C., capillary voltage −25 V, tube lens voltage −50 V. The scan range was set to 80-1,000 m/z, with a maximum inject time of 250 ms, resolution of 100,000 at 1 Hz, and AGC (automatic gain control) target 1×10^6. The data were analyzed using the MAVEN software suite with signal intensity determined as the Peak Area (Top). For metabolic labelling experiments, the data were corrected to account for the natural abundance of nitrogen-15 using IsoCorrectoR (Heinrich, P. et al. Sci Rep 8, 17910, doi: 10.1038/s41598-018-36293-4 (2018)).

[2] = tested on: HT-1080, 786-O, U87, T98G, RCC4, H1299, A549, Hela and Hs578T; assay: Cell death assay (PI flow cytometry), panel of cancer cell lines; format: cell-based, human
Protocol: All cell lines used in this study were free of mycoplasma contamination (per testing done by the vendor). All the cells were cultured in a 37° C. incubator in a 5% CO2 atmosphere. H1299 cells were cultured in RPMI-1640 medium supplemented with 10% fetal bovine serum and 10,000 U/mL penicillin-streptomycin. HT-1080, 786-O, U87, T98G, RCC4, A549, Hela and Hs578T cells were cultured in Dulbecco modified Eagle medium (DMEM) supplemented with 10% fetal bovine serum and 10,000 U/mL of penicillin-streptomycin.
After treatment, cells were trypsinized and collected. […] All experiments were performed in triplicates.

[3] = tested on: HT-1080 cells; assay: Cell viability assay (CCK-8); format: cell-based, human
Protocol: Cell viability was measured using a Cell Counting Kit-8 (CCK-8, Dojindo) as previously described (Koppula, P., et al. J Biol Chem 292, 14240-14249, doi: 10.1074/jbc.M117.798405 (2017); Liu, X. et al. Nat Cell Biol 18, 431-442, doi: 10.1038/ncb3328 (2016)). In brief, cells were seeded onto 96-well plates at a density of 1×10^4 per well. The next day, cells were treated with indicated compound for 16-20 h. Subsequently, cells were changed to new 100 μl medium containing 10 μl CCK-8 reagent for 1 h at 37° C., 5% CO2 in incubator. The absorbance at 450 nm was determined using a FLUOstar Omega microplate reader (BMG Labtech).

[4] = tested on: NADP+/NADPH; assay: NADP+ and NADPH measurement; format: cell-based; conditions: treated vs untreated cells
[5] = tested on: cells; assay: Metabolomic analysis of vehicle or sulfite treated cells; format: cell-based
Protocol: Metabolomic analysis was performed in vehicle or sulfite treated cells. An increase in the levels of 6-phospho-D-Gluconate (FIG. 3C), ribose phosphate (FIG. 3D), D-Glyceraldehyde 3-phosphate (FIG. 3E), D-sedoheptulose-1/7 phosphate (FIG. 3F), NDAP+/NADPH ratio (FIG. 3G), oxPPP shunting (FIG. 3H) were observed.
Metabolomic analysis was performed as previously described (Liu, X. et al. Nat Cell Biol 22, 476-486, doi: 10.1038/s41556-020-0496-x (2020)). Cells were seeded on 35-mm culture plates at a density sufficient to ensure approximately 70-80% confluence at the time of extraction. Metabolites were extracted at the indicated time points for subsequent analyses. Metabolites were extracted by rapidly aspirating the culture medium and then adding 500 μl of an 80% methanol: 20% water mixture at dry ice temperature. The plates were incubated on dry ice for 15 min before the cells were scraped into pre-chilled Eppendorf tubes. The cell debris was pelleted by centrifugation at 13,000 ref for 5 min at 4° C. and the supernatant was transferred into a fresh tube and stored on dry ice until analysis. Just before analysis, 500 μl of extract was dried under nitrogen gas flow and then resuspended in 100 μl water.
as §1

[6] = sulfite vs vehicle treated cells

O=S([O-])[O-].[Na+].[Na+] [sulfite, sodium sulfite]
M+1dTTP [1]: decreased over time
M+2 dTT [1]: decreased over time
total dTTP [1]: decreased over time
ferroptosis (cell death) in combination with RSL3 ([2]; RSL3 0.2-2.0 μm plus sulfite 0.5-2 mM depending on cell line): induced statistically significant ferroptosis
induction of ferroptosis (cell death) ([2]; sulfite alone, 0.5-2 mM depending on cell line): did not show induction of ferroptosis
cell viability when combined with different concentrations of RSL3 ([3]; combined with RSL3, range of concentrations): reduces cell viability
sensitization effect on cell viability in SHMT2 knock out cells ([3]; sulfite plus multiple concentrations of RSL3, SHMT2 knock out vs wild type): much weaker than in wild type cells
NADP+/NADPH ratio [4]: increase
Levels of S-sulfocysteine ([5]; sulfite treated samples): increase
level of 6-phospho-D-Gluconate [5, 6]: increase
level of D-Glyceraldehyde 3-phosphate [5, 6]: increase
level of D-sedoheptulose-1/7 phosphate [5, 6]: increase
level of ribose phosphate [5, 6]: increase

— patent publication US20260248767A1, “METHODS FOR INDUCING FERROPTOSIS IN CANCER” (Board of Regents, The University of Texas System, priority 2023, published 2026)
